Experimental data from publication doi:10.1101/2020.02.18.954925v1 (biorxiv, 2020).

Molecular target: Lpg2603 10-C (Legionella pneumophila, UniProt Q5ZSB6)
Experiment: biochemical

Sequence of Lpg2603 10-C (Q5ZSB6 10-434 limits assumed): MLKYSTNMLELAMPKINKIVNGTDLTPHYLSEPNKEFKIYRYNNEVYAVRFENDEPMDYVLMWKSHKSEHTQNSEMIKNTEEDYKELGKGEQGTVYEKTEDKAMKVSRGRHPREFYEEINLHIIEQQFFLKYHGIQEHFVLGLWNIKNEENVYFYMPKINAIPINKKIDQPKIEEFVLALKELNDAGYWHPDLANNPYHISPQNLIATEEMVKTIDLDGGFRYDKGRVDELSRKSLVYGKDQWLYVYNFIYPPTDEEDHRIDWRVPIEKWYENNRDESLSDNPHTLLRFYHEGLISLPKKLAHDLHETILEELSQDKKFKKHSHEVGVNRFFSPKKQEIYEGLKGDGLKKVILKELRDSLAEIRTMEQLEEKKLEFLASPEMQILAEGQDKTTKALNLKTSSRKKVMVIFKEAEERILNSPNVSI

For `O=P(O)(O)O[C@H]1[C@H](OP(=O)(O)O)[C@@H](OP(=O)(O)O)[C@H](OP(=O)(O)O)[C@@H](OP(=O)(O)O)[C@H]1OP(=O)(O)O` [inositol hexakisphosphate], the Kd was ~315 µM.
